Seven compounds from patent US20250171432A1, “COMPOUNDS AND METHODS OF USE” (Tango Therapeutics, Inc., priority 2022, published 2025) can be followed below.

Holding throughout (assay type): cell-based
Assay [1] has as its system SDMA (PRMT5 activity) in HAP1 MTAP-intact cell line. Briefly: SDMA in-cell western assay, HAP1 MTAP-intact. The note with it: Homo sapiens, HAP1, 24 h, SDMA in-cell western, HAP1 MTAP-intact cells, 24 hours compound incubation.
In assay [2] the test system is SDMA (PRMT5 activity) in HAP1 MTAP-deleted cell line. Briefly: SDMA in-cell western assay, HAP1 MTAP-deleted. The note with it: for IC50 / IC90: Homo sapiens, SDMA in-cell western, HAP1 MTAP-deleted cells, 24 hours compound incubation; for Hap1 MTAP intact/deleted ratio: ratio of SDMA IC50 in HAP1 MTAP-intact to HAP1 MTAP-deleted cell line.
Assay [3] relates to HAP1 MTAP-deleted cell line. In words: Viability assay (CellTiter-Glo), HAP1 MTAP-deleted. The note with it: Homo sapiens, 168 h, HAP1 MTAP-deleted cells, 7 days. In outline:
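HAP1 MTAP-deleted and MTAP-intact cells seeded, then dosed next day (n=3, 0.2% DMSO) and grown 7 days. Viability by CellTiter-Glo luminescence, expressed as % of DMSO control per cell line.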

The structures appear in SMILES notation. Some results are limits rather than exact numbers.

`COc1ncc(NC(=O)C(=O)N2C[C@@H](C)CC[C@@H]2c2ccc3sc(CC4(C)CCN(C)CC4)nc3c2)cc1C(N)=O` [Compound 22, 5-(2-((2R,5S)-2-(2-((1,4-dimethylpiperidin-4-yl)methyl)benzo[d]thiazol-5-yl)-5-methylpiperidin-1-yl)-2-oxoacetamido)-2-methoxynicotinamide]: the IC50 in assay [1] is greater than 50 nM. For the same compound, in assay [2], the IC50 is less than 5 nM, the concentration for an effect of 90% (IC90) was less than 75 nM and the “Hap1 MTAP intact/deleted ratio” value is “B (“B” indicates an IC50 ratio greater than or equal to 15 fold but lower than 30 fold)”. The compound also came in with a 50% inhibitory concentration (IC50) in assay [3] of less than 100 nM.

Turning to `CCc1cc(NC(=O)C(=O)N2CCCC[C@@H]2c2ccc3sc(C4CCN(C)CC4)nc3c2)cnc1N` [Compound 73, N-(6-amino-5-ethylpyridin-3-yl)-2-(2-(2-(1-methylpiperidin-4-yl)benzo[d]thiazol-5-yl)piperidin-1-yl)-2-oxoacetamide], the concentration for half-maximal inhibition (IC50) in assay [1] is greater than 50 nM. Also, in assay [2], the IC50 was 5 to 50 nM, the IC90 was in the range of 75 to 125 nM and the “Hap1 MTAP intact/deleted ratio” value is “A (“A” indicates an IC50 ratio greater than or equal to 30 fold)”. Moreover, in assay [3], the IC50 lay in the range of 100 to 1000 nM.

In assay [1], `CCc1cc(NC(=O)C(=O)N2C[C@@H](C)CC[C@@H]2c2ccc3cccnc3c2)cnc1N` [Compound 76, N-(6-amino-5-ethylpyridin-3-yl)-2-((2R,5S)-5-methyl-2-(quinolin-7-yl)piperidin-1-yl)-2-oxoacetamide] showed an IC50 greater than 50 nM. In addition, in assay [2], the IC50 was in the range of 5 to 50 nM, the concentration for an effect of 90% (IC90) was greater than 125 nM and the “Hap1 MTAP intact/deleted ratio” value is recorded as “A (“A” indicates an IC50 ratio greater than or equal to 30 fold)”. In assay [3], this compound registered a half-inhibitory concentration (IC50) of 100 to 1000 nM.

`COc1ncc(NC(=O)C(=O)N2C[C@@H](C)CC[C@@H]2c2ccc3sc(C45CC(N(C)C)(C4)C5)nc3c2)cc1C(N)=O` [Compound 86]: the IC50 in assay [1] was greater than 50 nM; in assay [2], 5 to 50 nM; in assay [3] it was less than 100 nM. Moreover, in assay [2], the IC90 was greater than 125 nM. The “Hap1 MTAP intact/deleted ratio” value in assay [2] is on record as “A (“A” indicates an IC50 ratio greater than or equal to 30 fold)”.

`COc1ncc(NC(=O)C(=O)N2C[C@@H](C)CC[C@@H]2c2ccc3sc([C@H]4CCN(C)C[C@@H]4OC)nc3c2)cc1C(N)=O` (single isomer, unassigned) [Compound 35]: the results for the IC50 in assay [1], in assay [2] and in assay [3] were greater than 50 nM, less than 5 nM and less than 100 nM, respectively. Besides, in assay [2], the IC90 is less than 75 nM. For the same compound, in assay [2], the “Hap1 MTAP intact/deleted ratio” value is reported as “A (“A” indicates an IC50 ratio greater than or equal to 30 fold)”.

Turning to `COc1ncc(NC(=O)C(=O)N2C[C@@H](C)CC[C@@H]2c2ccc3sc([C@H]4CN(C)CC4(C)C)nc3c2)cc1C(N)=O` (single isomer, unassigned) [Compound 36], the 50% inhibitory concentration (IC50) in assay [1] is greater than 50 nM; in assay [2], less than 5 nM; in assay [3], less than 100 nM. This compound displayed a concentration for an effect of 90% (IC90) in assay [2] of less than 75 nM. In addition, the “Hap1 MTAP intact/deleted ratio” value in assay [2] is “A (“A” indicates an IC50 ratio greater than or equal to 30 fold)”.

Turning to `CCc1cc(NC(=O)C(=O)N2C[C@@H](C)CC[C@@H]2c2ccc3sc(C(C)CN4CCCC4)nc3c2)cnc1N` (single isomer, unassigned) [Compound 2], the IC50 in assay [1] was 5 to 50 nM. In assay [2], the IC50 was less than 5 nM, the IC90 is less than 75 nM and the “Hap1 MTAP intact/deleted ratio” value is listed as “B (“B” indicates an IC50 ratio greater than or equal to 15 fold but lower than 30 fold)”. In assay [3], this compound had an IC50 of less than 100 nM.
